Laboratory results reported in ChEMBL document CHEMBL1909046, “DrugMatrix in vitro pharmacology data”.

Legend:
[1] = target: Beta-1 adrenergic receptor (Homo sapiens, UniProt P08588); assay: DRUGMATRIX: Adrenergic beta1 radioligand binding (ligand: [125I] Cyanopindolol); assay type: cell membranes, CHO-K1, Membrane; details: cho-k1; Not Active = under 50% inhibition at 10 µM
[2] = target: Vascular endothelial growth factor receptor 1 (Homo sapiens, UniProt P17948); assay type: cell-based; details: huvec; further: in other assays of this panel Not Active means under 50% inhibition at 10 µM
Sequence of Vascular endothelial growth factor receptor 1 (P17948 whole entry): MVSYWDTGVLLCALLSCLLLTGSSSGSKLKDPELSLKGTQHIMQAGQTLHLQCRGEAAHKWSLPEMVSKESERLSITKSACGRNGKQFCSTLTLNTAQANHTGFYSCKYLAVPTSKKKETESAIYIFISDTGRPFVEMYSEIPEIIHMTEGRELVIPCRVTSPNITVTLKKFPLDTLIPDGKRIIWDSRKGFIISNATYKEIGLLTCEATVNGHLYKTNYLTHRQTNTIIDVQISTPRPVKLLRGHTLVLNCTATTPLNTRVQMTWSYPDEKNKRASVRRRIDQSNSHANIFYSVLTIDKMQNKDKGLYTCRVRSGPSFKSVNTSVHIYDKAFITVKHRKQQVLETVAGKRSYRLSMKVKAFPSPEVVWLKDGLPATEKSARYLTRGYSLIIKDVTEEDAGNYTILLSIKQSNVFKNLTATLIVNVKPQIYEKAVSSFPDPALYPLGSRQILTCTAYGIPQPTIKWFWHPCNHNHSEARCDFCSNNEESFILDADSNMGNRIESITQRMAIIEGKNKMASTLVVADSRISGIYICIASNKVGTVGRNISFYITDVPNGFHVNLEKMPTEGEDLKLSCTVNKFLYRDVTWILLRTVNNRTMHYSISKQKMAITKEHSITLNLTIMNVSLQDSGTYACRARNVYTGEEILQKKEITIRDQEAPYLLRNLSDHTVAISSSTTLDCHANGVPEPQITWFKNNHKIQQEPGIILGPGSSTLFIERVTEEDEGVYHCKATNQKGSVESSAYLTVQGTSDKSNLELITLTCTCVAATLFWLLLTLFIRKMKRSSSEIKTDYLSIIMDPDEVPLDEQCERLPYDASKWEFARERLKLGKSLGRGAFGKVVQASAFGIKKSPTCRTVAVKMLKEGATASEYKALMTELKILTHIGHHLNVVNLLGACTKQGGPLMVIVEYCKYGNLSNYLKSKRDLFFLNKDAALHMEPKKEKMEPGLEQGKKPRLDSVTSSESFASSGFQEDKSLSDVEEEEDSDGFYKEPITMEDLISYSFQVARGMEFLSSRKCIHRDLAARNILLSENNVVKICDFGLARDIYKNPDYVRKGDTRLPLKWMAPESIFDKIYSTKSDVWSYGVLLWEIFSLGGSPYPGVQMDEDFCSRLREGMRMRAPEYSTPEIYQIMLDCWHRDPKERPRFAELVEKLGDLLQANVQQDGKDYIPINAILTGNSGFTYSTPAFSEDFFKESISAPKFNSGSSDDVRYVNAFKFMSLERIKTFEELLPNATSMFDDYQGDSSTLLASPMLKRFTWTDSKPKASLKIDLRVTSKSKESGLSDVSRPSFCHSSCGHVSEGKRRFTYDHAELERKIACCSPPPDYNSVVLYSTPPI

[3] = DRUGMATRIX: Glutamate, AMPA radioligand binding (ligand: [3H] AMPA); assay type: cell membranes, Rattus norvegicus, Wistar, Cerebral cortex, Membrane; details: Not Active = under 50% inhibition at 10 µM
[4] = target: T1, 3-hydroxy-3-methylglutaryl-coenzyme A reductase (Homo sapiens, UniProt P04035); parameters: species or system Escherichia coli;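 further: enzyme inhibition assay of HMG-CoA reductase using radiolabeled [14C]HMG-CoA as substrate; in other assays of this panel Not Active means under 50% inhibition at 10 µM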
T1 sequence (P04035 whole entry): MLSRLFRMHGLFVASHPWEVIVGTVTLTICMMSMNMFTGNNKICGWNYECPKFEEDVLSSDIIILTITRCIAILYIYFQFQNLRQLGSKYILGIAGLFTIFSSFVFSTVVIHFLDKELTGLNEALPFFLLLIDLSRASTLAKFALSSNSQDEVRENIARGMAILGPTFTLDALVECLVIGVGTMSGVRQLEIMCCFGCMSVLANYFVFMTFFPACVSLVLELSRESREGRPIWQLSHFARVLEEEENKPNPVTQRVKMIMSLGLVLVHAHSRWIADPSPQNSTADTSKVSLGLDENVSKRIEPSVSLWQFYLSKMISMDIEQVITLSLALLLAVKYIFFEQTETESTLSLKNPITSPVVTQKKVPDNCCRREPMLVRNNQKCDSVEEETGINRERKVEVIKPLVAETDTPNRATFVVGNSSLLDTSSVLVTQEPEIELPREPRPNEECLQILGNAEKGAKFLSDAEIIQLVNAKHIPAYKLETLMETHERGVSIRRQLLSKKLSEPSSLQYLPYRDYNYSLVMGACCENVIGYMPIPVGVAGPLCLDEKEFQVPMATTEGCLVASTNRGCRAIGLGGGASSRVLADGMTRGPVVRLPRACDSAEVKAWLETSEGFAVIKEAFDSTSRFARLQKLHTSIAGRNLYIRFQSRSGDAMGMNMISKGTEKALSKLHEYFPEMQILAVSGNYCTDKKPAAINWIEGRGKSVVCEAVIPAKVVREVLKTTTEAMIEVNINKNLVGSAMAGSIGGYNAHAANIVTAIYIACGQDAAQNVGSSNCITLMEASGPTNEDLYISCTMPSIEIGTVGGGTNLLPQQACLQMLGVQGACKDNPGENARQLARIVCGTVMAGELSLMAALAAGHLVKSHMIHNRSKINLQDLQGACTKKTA

[5] = target: cGMP-specific 3',5'-cyclic phosphodiesterase (Homo sapiens, UniProt O76074); assay: DRUGMATRIX: Phosphodiesterase PDE5 enzyme inhibition (substrate: [3H]cGMP + cGMP); assay type: tissue-based, Platelet; details: platelet; Not Active = under 50% inhibition at 10 µM
[6] = target: 5-hydroxytryptamine receptor 1B (Rattus norvegicus, UniProt P28564); assay type: cell membranes, Wistar, Cerebral cortex, Membrane; further: in other assays of this panel Not Active means under 50% inhibition at 10 µM
Sequence of 5-hydroxytryptamine receptor 1B (P28564 whole entry): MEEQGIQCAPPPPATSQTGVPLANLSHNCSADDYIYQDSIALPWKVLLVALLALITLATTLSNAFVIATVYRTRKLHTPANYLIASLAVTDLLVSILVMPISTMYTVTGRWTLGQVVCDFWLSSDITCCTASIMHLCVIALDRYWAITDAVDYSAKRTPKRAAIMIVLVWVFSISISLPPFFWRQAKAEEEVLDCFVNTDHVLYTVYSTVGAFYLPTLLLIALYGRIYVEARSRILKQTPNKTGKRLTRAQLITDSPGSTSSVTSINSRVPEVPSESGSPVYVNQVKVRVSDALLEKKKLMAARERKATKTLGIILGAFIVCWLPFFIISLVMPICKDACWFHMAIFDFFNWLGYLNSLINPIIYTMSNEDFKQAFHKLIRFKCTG

Cytochrome P450 2D6 = Cytochrome P450 2D6 (Homo sapiens, UniProt P10635); details: bti-tn-5b1-4; further: in other assays of this panel Not Active means under 50% inhibition at 10 µM
Sequence of Cytochrome P450 2D6 (P10635 whole entry): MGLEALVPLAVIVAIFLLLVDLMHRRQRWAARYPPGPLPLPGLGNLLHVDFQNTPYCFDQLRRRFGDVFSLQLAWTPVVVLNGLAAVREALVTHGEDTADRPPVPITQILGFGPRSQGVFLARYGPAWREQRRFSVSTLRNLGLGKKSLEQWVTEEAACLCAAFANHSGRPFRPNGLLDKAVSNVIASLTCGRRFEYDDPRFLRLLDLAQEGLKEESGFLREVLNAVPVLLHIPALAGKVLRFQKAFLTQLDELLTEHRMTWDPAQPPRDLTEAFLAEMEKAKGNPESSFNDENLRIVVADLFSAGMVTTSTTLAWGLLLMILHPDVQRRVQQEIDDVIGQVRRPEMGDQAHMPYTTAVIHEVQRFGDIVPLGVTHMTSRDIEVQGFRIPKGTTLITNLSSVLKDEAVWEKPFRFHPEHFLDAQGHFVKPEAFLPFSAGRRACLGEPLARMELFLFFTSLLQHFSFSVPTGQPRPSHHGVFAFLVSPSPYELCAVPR

Sequence of Beta-1 adrenergic receptor (P08588 whole entry): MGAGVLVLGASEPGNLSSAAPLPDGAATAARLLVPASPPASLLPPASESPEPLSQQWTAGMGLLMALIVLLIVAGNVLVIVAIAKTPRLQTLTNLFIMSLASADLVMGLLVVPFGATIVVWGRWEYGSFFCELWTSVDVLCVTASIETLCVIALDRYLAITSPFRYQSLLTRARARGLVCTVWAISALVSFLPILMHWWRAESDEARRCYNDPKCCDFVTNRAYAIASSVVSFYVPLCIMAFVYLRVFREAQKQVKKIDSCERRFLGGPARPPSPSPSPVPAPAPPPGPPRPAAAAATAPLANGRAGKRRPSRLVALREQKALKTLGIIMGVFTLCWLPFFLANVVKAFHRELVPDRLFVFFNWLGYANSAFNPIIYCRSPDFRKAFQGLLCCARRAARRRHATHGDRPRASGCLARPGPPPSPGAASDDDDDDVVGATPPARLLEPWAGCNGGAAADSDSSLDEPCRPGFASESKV

CCOc1nc2cccc(C(=O)O)c2n1Cc1ccc(-c2ccccc2-c2nnn[nH]2)cc1
Not Active: IC50 [1] | IC50 [2] | IC50 [3] | Ki [3] | IC50 [4] | IC50 [5] | IC50 [6]

O=C(O)CCCc1cccs1
Not Active: IC50 [1] | IC50 [2] | IC50 [3] | Ki [3] | IC50 [4] | IC50 [5] | IC50 [6] | IC50 (Cytochrome P450 2D6) | Ki (Cytochrome P450 2D6)

COc1ccccc1N
Not Active: IC50 [1] | IC50 [2] | IC50 [3] | Ki [3] | IC50 [4] | IC50 [5] | IC50 [6] | IC50 (Cytochrome P450 2D6) | Ki (Cytochrome P450 2D6)

O=C(c1ccccc1F)N1CCC(Cc2ccccc2)CC1
Not Active: IC50 [1] | IC50 [2] | IC50 [3] | Ki [3] | IC50 [4] | IC50 [5] | IC50 [6] | IC50 (Cytochrome P450 2D6) | Ki (Cytochrome P450 2D6)

Cc1c(O)cccc1C(=O)N[C@@H](CSc1ccccc1)[C@H](O)CN1C[C@H]2CCCC[C@H]2C[C@H]1C(=O)NC(C)(C)C
Not Active: IC50 [2] | IC50 [3] | Ki [3] | IC50 [4] | IC50 [5] | IC50 [6] | IC50 (Cytochrome P450 2D6) | Ki (Cytochrome P450 2D6)

CC(O)COC[C@H]1O[C@@H]2O[C@H]3[C@H](O)[C@@H](O)[C@@H](O[C@H]4[C@H](O)[C@@H](O)[C@@H](O[C@H]5[C@H](O)[C@@H](O)[C@@H](O[C@H]6[C@H](O)[C@@H](O)[C@@H](O[C@H]7[C@H](O)[C@@H](O)[C@@H](O[C@H]8[C@H](O)[C@@H](O)[C@@H](O[C@H]1[C@H](O)[C@H]2O)O[C@@H]8COCC(C)O)O[C@@H]7COCC(C)O)O[C@@H]6COCC(C)O)O[C@@H]5COCC(C)O)O[C@@H]4COCC(C)O)O[C@@H]3COCC(C)O (stereo partly drawn) [2-HYDROXYPROPYL-BETA-CYCLODEXTRIN]
Not Active: IC50 [1] | IC50 [2] | IC50 [3] | Ki [3] | IC50 [4] | IC50 [5] | IC50 [6] | IC50 (Cytochrome P450 2D6) | Ki (Cytochrome P450 2D6)

NC(=O)c1cccc(N)c1 [3-AMINOBENZAMIDE]
Not Active: IC50 [1] | IC50 [2] | IC50 [3] | Ki [3] | IC50 [4] | IC50 [5] | IC50 [6] | IC50 (Cytochrome P450 2D6) | Ki (Cytochrome P450 2D6)

CC[C@H]1[C@@H]2C[C@H]3[C@@H]4N(C)c5ccccc5[C@]45C[C@@H]([C@@H]2[C@H]5O)N3[C@@H]1O [AJMALINE]
Not Active: IC50 [1] | IC50 [2] | IC50 [3] | Ki [3] | IC50 [4] | IC50 [5] | IC50 [6]

NC12CC3CC(CC(C3)C1)C2 [AMANTADINE]
Not Active: IC50 [1] | IC50 [2] | IC50 [3] | Ki [3] | IC50 [4] | IC50 [5] | IC50 [6]

CC(C)c1c(C(=O)Nc2ccccc2)c(-c2ccccc2)c(-c2ccc(F)cc2)n1CC[C@@H](O)C[C@@H](O)CC(=O)O [ATORVASTATIN]
Not Active: IC50 [1] | IC50 [2] | IC50 [3] | Ki [3] | IC50 [5] | IC50 [6]

O=C(O)CC(O)(CC(=O)O)C(=O)O [CITRIC ACID]
Not Active: IC50 [2] | IC50 [3] | Ki [3] | IC50 [4] | IC50 [5] | IC50 [6] | IC50 (Cytochrome P450 2D6) | Ki (Cytochrome P450 2D6)

CN1CCN(C(c2ccccc2)c2ccccc2)CC1 [CYCLIZINE]
Not Active: IC50 [1] | IC50 [2] | IC50 [3] | Ki [3] | IC50 [4] | IC50 [5] | IC50 [6]

CC(C)(C(=O)O)c1ccc(C(O)CCCN2CCC(C(O)(c3ccccc3)c3ccccc3)CC2)cc1 (stereo not given) [FEXOFENADINE]
Not Active: IC50 [1] | IC50 [2] | IC50 [3] | Ki [3] | IC50 [4] | IC50 [5] | IC50 [6]

CC(=O)OCC(=O)[C@@]12OC(C)(C)O[C@@H]1C[C@H]1[C@@H]3C[C@H](F)C4=CC(=O)C=C[C@]4(C)[C@@]3(F)[C@@H](O)C[C@@]12C [FLUOCINONIDE]
Not Active: IC50 [1] | IC50 [2] | IC50 [3] | Ki [3] | IC50 [4] | IC50 [5] | IC50 [6]

CN1CCC(=C2c3ccccc3CC(=O)c3sccc32)CC1 [KETOTIFEN]
Not Active: IC50 [2] | IC50 [3] | Ki [3] | IC50 [4] | IC50 [5] | IC50 [6] | IC50 (Cytochrome P450 2D6) | Ki (Cytochrome P450 2D6)

N[C@@H](Cn1ccc(=O)c(O)c1)C(=O)O [L-MIMOSINE]
Not Active: IC50 [1] | IC50 [2] | IC50 [3] | Ki [3] | IC50 [4] | IC50 [5] | IC50 [6]

C[C@@H]1C/C=C/C=C/C=C/C=C/[C@H](O[C@@H]2O[C@H](C)[C@@H](O)[C@H](N)[C@@H]2O)C[C@@H]2O[C@](O)(C[C@@H](O)C[C@H]3O[C@@H]3/C=C/C(=O)O1)C[C@H](O)[C@H]2C(=O)O [NATAMYCIN]
Not Active: IC50 [1] | IC50 [2] | IC50 [3] | Ki [3] | IC50 [4] | IC50 [5] | IC50 [6]

NNCCc1ccccc1 [PHENELZINE]
Not Active: IC50 [1] | IC50 [2] | IC50 [3] | Ki [3] | IC50 [4] | IC50 [5] | IC50 [6]

CC[C@]1(O)C[C@@H]2CN(CCc3c([nH]c4ccccc34)[C@@](C(=O)OC)(c3cc4c(cc3OC)N(C)[C@H]3[C@@](O)(C(N)=O)[C@H](O)[C@]5(CC)C=CCN6CC[C@]43[C@@H]65)C2)C1 [VINDESINE]
Not Active: IC50 [1] | IC50 [2] | IC50 [3] | Ki [3] | IC50 [4] | IC50 [5] | IC50 [6]
